# Experimental data reported in US20140037659A1 (Yissum Research Development Company of the Hebrew …, priority 2011, published 2014).
# B1: CD3δ of EL4 T cell line (receptor, UniProt P04235 22-173, looked up)
# chain: FKIQVTEYEDKVFVTCNTSVMHLDGTVEGWFAKNKTLNLGKGVLDPRGIYLCNGTEQLAKVVSSVQVHYRMCQNCVELDSGTMAGVIFIDLIATLLLALGVYCFAGHETGRPSGAAEVQALLKNEQLYQPLRDREDTQYSRLGGNWPRNKKS
# notes: Immunoprecipitated from EL4 lysate with anti-CD3δ antibody
# Experiments:
# MDSCs [1] = assay: 5FU treatment of BCG-treated mice displaying chronic inflammation; format: in vivo
# Procedure: Normal C57B116 mice repeatedly exposed to heat-killed BCG were used as the mouse model for chronic inflammation^1. BCG was administered by three subcutaneous injections at 1 wk intervals, 100 μg per animal/dose; the first two doses were administrated with IFA (Incomplete Freund's adjuvant), and subsequent injections included heat-killed BCG in PBS. Unless stated otherwise, splenocytes were collected 2-3 days after the last injection. Control mice remained untreated. For experiments with chicken OVA (Sigma) as antigen, the same protocol was maintained: For a Th1 response BCG was administered as above but with OVA. For a Th2 response, the first and second injections were with 100 μg OVA adsorbed to Al(OH)3 (alum; Thermo), and the third injection was with 100 μg OVA in PBS. Experimental groups included at least three mice, and each experiment was repeated at least three times.
# BCG-treated mice received three i.p. injections of 5-fluorouracil (5FU); The first 5FU injection (1 mg/mouse) was given at the day of the second BCG treatment and the second 5FU injection was given four days later. The third 5FU injection (0.5 mg/mouse) was given at the day of the third BCG treatment.
# All the antibodies were purchased from Biolegend.
# MDSCs [2] = conditions: recently demonstrated, reference 30; cited from earlier work
# [3] = target: T1, SNX9 (sorting nexin 9 protein), endogenous in EL4 T cell line (Mus musculus, UniProt Q91VH2 1-595); assay: immunoprecipitation of EL4 lysate with anti-CD3δ, immunoblot for SNX9
# T1 construct: Endogenous protein in a Triton X-100 lysate of EL4 T cells; also called sorting nexin-9 [Mus musculus]
# [4] = splenic cells of BCG+5FU treated mice vs BCG treated mice, immunoblotting, FIG. 14A
# T1 sequence (Q91VH2 whole entry): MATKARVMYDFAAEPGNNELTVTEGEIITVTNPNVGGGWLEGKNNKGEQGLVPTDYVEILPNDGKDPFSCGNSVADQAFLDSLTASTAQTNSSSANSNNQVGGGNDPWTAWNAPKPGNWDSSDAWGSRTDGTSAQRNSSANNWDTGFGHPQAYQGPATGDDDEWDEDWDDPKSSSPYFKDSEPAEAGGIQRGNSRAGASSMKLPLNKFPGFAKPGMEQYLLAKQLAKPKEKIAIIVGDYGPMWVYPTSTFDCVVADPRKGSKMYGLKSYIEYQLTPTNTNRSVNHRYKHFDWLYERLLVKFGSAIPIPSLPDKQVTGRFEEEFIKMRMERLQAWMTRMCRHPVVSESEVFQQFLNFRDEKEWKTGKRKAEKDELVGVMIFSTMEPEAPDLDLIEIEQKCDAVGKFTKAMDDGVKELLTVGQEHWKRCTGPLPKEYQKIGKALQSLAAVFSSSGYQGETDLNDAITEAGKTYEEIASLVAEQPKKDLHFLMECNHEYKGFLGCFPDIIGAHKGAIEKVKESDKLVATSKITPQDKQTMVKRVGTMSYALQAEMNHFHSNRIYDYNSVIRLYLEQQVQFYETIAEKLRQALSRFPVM
Molecule,"MDSCs levels (Gr1+Mac1+ double-positive cells) (MDSCs [1]; FACS of cells from BCG+5FU treated mice, FIG. 14B, C)",SNX9 expression levels (MDSCs [1]; [4]),ζ chain expression levels (MDSCs [1]; [4]),effect on MDSCs (MDSCs [2]),binding result [3]
"O=c1[nH]cc(F)c(=O)[nH]1 [5FU, 5-fluorouracil]",Eliminates MDSCs,recovery,recovery,cytotoxic effect on MDSCs,–
B1,–,–,–,–,no binding
